# From ChEMBL document CHEMBL5042490, “Lead derivatization of ethyl 6-bromo-2-((dimethylamino)methyl)-5-hydroxy-1-phenyl-1H-indole-3-carboxylate and 5-bromo-2-(thiophene-2-carboxamido) benzoic acid as FabG inhibitors targeting ESKAPE pathogens” (Eur J Med Chem, 2022)
# Legend:
# [1] = Inhibition of Klebsiella pneumoniae FabG1 assessed as reduction in Acetoacetyl-coenzyme-A substrate in presence of NADPH preincubated for 5 mins followed by substrate addition and measured for 6 to 10 mins by spectrophotometric analysis
# [2] = Inhibition of Escherichia coli FabG assessed as reduction in Acetoacetyl-coenzyme-A substrate in presence of NADPH preincubated for 5 mins followed by substrate addition and measured for 6 to 10 mins by spectrophotometric analysis
# [3] = Inhibition of Acinetobacter baumannii FabG assessed as reduction in Acetoacetyl-coenzyme-A substrate in presence of NADPH preincubated for 5 mins followed by substrate addition and measured for 6 to 10 mins by spectrophotometric analysis
# [4] = Inhibition of Salmonella typhimurium FabG assessed as reduction in Acetoacetyl-coenzyme-A substrate in presence of NADPH preincubated for 5 mins followed by substrate addition and measured for 6 to 10 mins by spectrophotometric analysis; parameters: species or system Salmonella enterica subsp. enterica serovar Typhimurium
# [5] = Inhibition of Staphylococcus aureus FabG assessed as reduction in Acetoacetyl-coenzyme-A substrate in presence of NADPH preincubated for 5 mins followed by substrate addition and measured for 6 to 10 mins by spectrophotometric analysis
# [6] = Inhibition of Pseudomonas aeruginosa FabG assessed as reduction in Acetoacetyl-coenzyme-A substrate in presence of NADPH preincubated for 5 mins followed by substrate addition and measured for 6 to 10 mins by spectrophotometric analysis
# [7] = Inhibition of Klebsiella pneumoniae FabG2 assessed as reduction in Acetoacetyl-coenzyme-A substrate in presence of NADH preincubated for 5 mins followed by substrate addition and measured for 6 to 10 mins by spectrophotometric analysis
# [8] = Inhibition of Mycobacterium tuberculosis FabG assessed as reduction in Acetoacetyl-coenzyme-A substrate in presence of NADPH preincubated for 5 mins followed by substrate addition and measured for 6 to 10 mins by spectrophotometric analysis
Structure (SMILES),IC50 [1],IC50 ([2]; read-out: IC50),IC50 [3],IC50 [4],IC50 [5],IC50 [6],IC50 [7],IC50 [8],IC50 [2],IC50 ([3]; read-out: IC50),IC50 ([4]; read-out: IC50),IC50 ([8]; read-out: IC50)
CCOC(=O)c1c(CSc2nc3ccccc3o2)n(C)c2cc(Br)c(O)cc12,Not Active,18.6 µM,Not Active,Not Active,Not Active,Not Active,Not Active,–,–,–,–,–
CCOC(=O)c1c(CSc2nc3ccccc3s2)n(Cc2ccccc2)c2cc(Br)c(O)cc12,Not Active,20.8 µM,Not Active,Not Active,Not Active,Not Active,Not Active,Not Active,–,–,–,–
Cc1c(Br)cccc1C(=O)Nc1ccc(Br)cc1C(=O)O,Not Active,–,–,Not Active,Not Active,Not Active,Not Active,–,Not Active,36.7 µM,–,–
O=C(Nc1ccc(Br)cc1C(=O)O)c1cccc(I)c1,Not Active,21.6 µM,–,–,Not Active,Not Active,Not Active,–,–,15.7 µM,37.4 µM,14.7 µM
O=C(CCBr)Nc1ccc(Br)cc1C(=O)O,Not Active,–,Not Active,Not Active,Not Active,Not Active,Not Active,–,Not Active,–,–,78.3 µM
CCOC(=O)c1c(CSc2nc3ccccc3s2)n(C)c2cc(Br)c(O)cc12,Not Active,31.8 µM,Not Active,Not Active,Not Active,Not Active,Not Active,–,–,–,–,–
O=C(O)c1cc(Br)ccc1NC(=O)c1cccnc1Cl,Not Active,15.9 µM,Not Active,–,Not Active,Not Active,Not Active,–,–,–,51 µM,–
